Data on 36 compounds can be found in patent publication US7074784B2, “Medicaments against viral diseases” (priority 2000, dated 2006).

SMILES strings stand for the structures.

Data set [1] relates to hepatitis B virus. Kind of data set: Antiviral action on hepatitis B virus in HepG2.2.15 cells (HBV DNA dot-blot hybridization). The format is cell-based. Conditions: 192 h, 8 days treatment, intra- or extracellular hepatitis B-specific DNA band reduced by 50% compared with untreated sample. Here is the method: The antiviral action of the compounds of the invention on hepatitis B virus was investigated by methods based on those described by M. A. Sells et al., Proc. Natl. Acad. Sci. 84, 1005–1009 (1987) and B. E. Korba et al., Antiviral Research 19, 55–70 (1992).
The antiviral tests were carried out in 96-well microtiter plates. The first vertical row of the plate received only growth medium and HepG2.2.15 cells. It served as virus control.
Stock solutions of the test compounds (50 mM) were initially dissolved in DMSO, and further dilutions were prepared in the HepG2.2.15 growth medium. The compounds according to the invention were usually pipetted in a test concentration of 100 μM (1st test concentration) in each case into the second vertical test row of the microtiter plate and subsequently diluted in twofold steps 2^10 times in growth medium plus 2% by weight of fetal calf serum (volume 25 μl).
Each well of the microtiter plate then contained 225 μl of HepG2.2.15 cell suspension (5×10^4 cells/ml) in growth medium plus 2% by weight of fetal calf serum. The test mixture was incubated at 37° C. and 5% CO2 (v/v) for 4 days.
The supernatant was then aspirated off and discarded, and the wells received 225 μl of freshly prepared growth medium. The compounds according to the invention were each added anew as 10-fold concentrated solution in a volume of 25 μl. The mixtures were incubated for a further 4 days.
The supernatant and/or cells were then harvested and sucked by means of a vacuum onto 96-well dot-blot chambers covered with a nylon membrane (in accordance with the manufacturer's information).
After the supernatants or lysed cells had been transferred to the nylon membrane of the blot apparatus (see above), the intra- or extracellular supernatants of the HepG2.2.15 cells were denatured (1.5 M NaCl/0.5 N NaOH), neutralized (3 M NaCl/0.5 M Tris HCl, pH 7.5) and washed (2×SSC). The DNA was then baked onto the membrane by incubating the filters at 120° C. for 2–4 hours.
Detection of the viral DNA from the treated HepG2.2.15 cells on the nylon filters was usually carried out with nonradioactive, digoxigenin-labeled hepatitis B-specific DNA probes, each of which was labeled with digoxigenin, purified and employed for the hybridization in accordance with the manufacturer's information.
The prehybridization and hybridization took place in 5×SSC, 1× blocking reagent, 0.1% by weight N-lauroylsarcosine, 0.02% by weight SDS and 100 μg of herring sperm DNA. The prehybridization took place at 60° C. for 30 minutes, and the specific hybridization with 20 to 40 ng/ml of the digoxigenized, denatured HBV-specific DNA (14 hours, 60° C.). The filters were then washed.
The immunological detection of the digoxigenin-labeled DNA took place in accordance with the manufacturer's information:
The filters were washed and prehybridized in a blocking reagent (in accordance with the manufacturer's information). Hybridization was then carried out with an anti-DIG antibody coupled to alkaline phosphatase for 30 minutes. After a washing step, the substrate of alkaline phosphatase, CSPD, was added, incubated with the filters for 5 minutes, then packed in plastic film and incubated at 37° C. for a further 15 minutes. The chemiluminescence of the hepatitis B-specific DNA signals was visualized by exposing the filters to an X-ray film (incubation depending on signal strength: 10 minutes to 2 hours).
The half-maximum inhibitory concentration (IC50, 50% inhibitory concentration) was determined as the concentration at which the intra- or extracellular hepatitis B-specific band was reduced by the compound according to the invention by 50% compared with an untreated sample.

For data set [2], the system named is HepG2.2.15 cells. Description: Cytotoxicity determination in HepG2.2.15 cells. Conditions: 50% of the cells show a morphology comparable to the cell control. The format is cell-based. An excerpt: Before harvesting the supernatants to determine the antiviral effect, the HepG2.2.15 cells were examined under the light microscope or by means of biochemical detection methods (for example Alamar Blue stain or Trypan Blue stain) for cytotoxic changes.
Substance-induced cytotoxic or cytostatic changes in the HepG2.2.15 cells were detected, for example, under the light microscope as changes in cell morphology. Such substance-induced changes in the HepG2.2.15 cells compared with untreated cells were visible, for example, as cytolysis, vacuolation or altered cell morphology. […]
No cytotoxic changes were detectable at concentrations >10 μM of the compounds of the invention.

As to `COC(=O)C1=C(CN2CCSC2)NC(c2ncccc2F)=NC1c1ccc(F)cc1Cl` (stereo not drawn), the melting point lay in the range of 163 to 164 °C.
As to `COC(=O)C1=C(CCN2CCSC2)NC(c2ncc(F)cc2F)=NC1c1ccc(F)cc1Cl` (stereo not drawn) [Example 2, Methyl 4-(2-chloro-4-fluorophenyl)-2-(3,5-difluoro-2-pyridyl)-6-[2-(1,3-thiazolidin-3-yl)-ethyl]-1,4-dihydropyrimidine-5-carboxylate], the IC50 in data set [1] came out at 0.4 µM. Further, the Tox50 in data set [2] turned out to be 38 µM.
The compound `COC(=O)C1=C(CN2CCCC2)NC(c2ncc(F)cc2F)=NC1c1ccc(Cl)cc1Cl` (stereo not drawn) gave a melting point of 168 to 170 °C.
`COC(=O)C1=C(CN2CCSCC2)NC(c2ncccc2F)=NC1c1ccc(Cl)cc1Cl` (stereo not drawn) registered a melting point of 137 °C.
The same measure, in the same setting: the figure for `COC(=O)C1=C(Cn2ccnc2)NC(c2ncc(F)cc2F)=NC1c1ccc(F)cc1Br` (stereo not drawn) is 123 to 126 °C.
Regarding `COC(=O)C1=C(CN(CCO)Cc2ccccc2)NC(c2ncc(F)cc2F)=NC1c1ccc(F)cc1Br` (stereo not drawn), the melting point came out at 135 °C.
Consider `CCN(C)CC1=C(C(=O)OC)C(c2ccc(Cl)cc2Cl)N=C(c2ncc(F)cc2F)N1` (stereo not drawn), for which the melting point lay within 142 to 143 °C.
In turn, `COC(=O)C1=C(CN2CCOCC2)NC(c2ncc(F)cc2F)=N[C@H]1c1ccc(F)cc1Br` [Example 31] came in with a melting point of 189 to 190 °C. The IC50 in data set [1] amounted to 0.002 µM. The same compound showed a Tox50 in data set [2] of 63 µM.
With `COC(=O)C1=C(CN2CCSC2)NC(c2nccs2)=NC1c1ccc(Cl)cc1Cl` (stereo not drawn), the melting point is 169 to 170 °C.
In turn, `COC(=O)C1=C(CN(CCO)Cc2ccccc2)NC(c2ncccc2F)=NC1c1ccc(F)cc1Br` (stereo not drawn) displayed a melting point of 121 °C.
Compound `COC(=O)C1=C(CN2CCSCC2)NC(c2ncc(F)cc2F)=N[C@H]1c1ccc(F)cc1Cl` [Example 11] showed an IC50 in data set [1] of 0.04 µM. The Tox50 in data set [2] is >8 µM.
For `COC(=O)C1=C(CN(CCO)Cc2ccccc2)NC(c2ncccc2F)=NC1c1ccc(F)cc1Cl` (stereo not drawn), the melting point is 128 °C.
The compound `COC(=O)C1=C(CN(C)CCO)NC(c2ncccc2F)=NC1c1ccc(F)cc1Cl` (stereo not drawn) had a melting point of 117 to 119 °C.
In turn, `COC(=O)C1=C(CN2CCSCC2)NC(c2ncc(F)cc2F)=NC1c1ccc(Cl)cc1Cl` (stereo not drawn) [Example 15] gave a melting point of 166 to 168 °C. This compound also displayed an IC50 in data set [1] of 0.05 µM. Further, the Tox50 in data set [2] came out at 3 µM.
Compound `COC(=O)C1=C(CN2CCSC2)NC(c2ncccc2F)=NC1c1ccc(Cl)cc1Cl` (stereo not drawn) gave a melting point of 175 °C.
Take `COC(=O)C1=C(CN2CCSCC2)NC(c2ncccc2F)=NC1c1ccc(F)cc1Cl` (stereo not drawn): the melting point was 145 °C.
For `COC(=O)C1=C(CN(CCO)CCO)NC(c2ncccc2F)=NC1c1ccc(Cl)cc1Cl` (stereo not drawn), the melting point came to 155 °C.
Regarding `COC(=O)C1=C(CN(C)CCO)NC(c2nccs2)=NC1c1ccc(Cl)cc1Cl` (stereo not drawn), the melting point is 132 °C.
In the case of `COC(=O)C1=C(CN2CCSCC2)NC(c2ncccc2F)=NC1c1ccc(F)cc1Br` (stereo not drawn), the melting point lay in the range of 128 to 131 °C.
`COC(=O)C1=C(CN(CCO)CCO)NC(c2ncccc2F)=NC1c1ccc(F)cc1Cl` (stereo not drawn): the melting point was 119 to 120 °C.
`COC(=O)C1=C(CN2CCSCC2)NC(c2ncc(F)cc2F)=NC1c1ccc(F)cc1Br` (stereo not drawn): the melting point fell in the range of 173 to 174 °C.
In turn, `COC(=O)C1=C(CN2CCOCC2)NC(c2ncccc2F)=NC1c1ccc(F)cc1Br` (stereo not drawn) [Example 24] returned a melting point of 156 to 158 °C. In addition, in data set [1], the IC50 turned out to be 0.02 µM. In data set [2], this compound registered a Tox50 of 80 µM.
The corresponding values for `COC(=O)C1=C(CN2CCOCC2)NC(c2ncc(F)cc2F)=N[C@H]1c1ccc(F)cc1Cl` [Example 5] are 178 °C, 0.002 µM and 40 µM.
`COC(=O)C1=C(CN2CCOCC2)NC(c2ncccc2F)=NC1c1ccc(F)cc1Cl` (stereo not drawn) [Example 34] yielded a melting point of 161 to 163 °C. The IC50 in data set [1] worked out at 0.009 µM. The Tox50 in data set [2] was 60 µM.
Consider `COC(=O)C1=C(CN2CCOCC2)NC(c2ncccc2F)=NC1c1ccc(Cl)cc1Cl` (stereo not drawn) [Example 7], for which the melting point was in the range of 182 to 183 °C. In data set [1], this compound registered an IC50 of 0.025 µM. In data set [2], the Tox50 turned out to be 25 µM.
In turn, `COC(=O)C1=C(CN(CCO)CCO)NC(c2nccs2)=NC1c1ccc(Cl)cc1Cl` (stereo not drawn) displayed a melting point of 133 °C.
As for `COC(=O)C1=C(CN2CCSC2)NC(c2ncccc2F)=NC1c1ccc(F)cc1Br` (stereo not drawn), the melting point was 172 to 173 °C.
As to `COC(=O)C1=C(CN2CCSC2)NC(c2ncc(F)cc2F)=NC1c1ccc(F)cc1Br` (stereo not drawn), the melting point was 183 to 184 °C.
`COC(=O)C1=C(CN2CCOCC2)NC(c2nccs2)=NC1c1ccc(Cl)cc1Cl` (stereo not drawn) [Example 45] yielded a melting point of 149 °C. The compound also yielded an IC50 in data set [1] of 0.002 µM. In data set [2], this compound came in with a Tox50 of 34 µM.
`COC(=O)C1=C(CN(CCO)CCO)NC(c2ncc(F)cc2F)=NC1c1ccc(Cl)cc1Cl` (stereo not drawn) gave a melting point of 144 to 145 °C.
Turning to `COC(=O)C1=C(CN(C)CCO)NC(c2ncc(F)cc2F)=NC1c1ccc(F)cc1Br` (stereo not drawn), the melting point is 114 to 116 °C.
As to `COC(=O)C1=C(CN2CCOCC2)NC(c2ncc(F)cc2F)=NC1c1ccc(F)cc1Br` (stereo not drawn) [Example 9], the melting point was in the range of 216 to 218 °C. This compound also returned an IC50 in data set [1] of 0.007 µM. In addition, the Tox50 in data set [2] was found to be 17 µM.
Take `COC(=O)C1=C(CN2CCCC2)NC(c2ncc(F)cc2F)=NC1c1ccc(F)cc1Br` (stereo not drawn): the melting point lay within 161 to 162 °C.
`COC(=O)C1=C(CN2CCOCC2)NC(c2ncc(F)cc2F)=NC1c1ccc(Cl)cc1Cl` (stereo not drawn): the melting point is 225 to 227 °C.
On to `COC(=O)C1=C(CN2CCCCC2)NC(c2ncccc2F)=NC1c1ccc(Cl)cc1Cl` (stereo not drawn), for which the melting point was 155 to 156 °C.
On the same count and under the same terms, the figure for `COC(=O)C1=C(CN2CCSC2)NC(c2ncc(F)cc2F)=NC1c1ccc(Cl)cc1Cl` (stereo not drawn) is 189 to 191 °C.

In general, melting point refers to the temperature of the solid-liquid transition. As a reminder, the IC50 is the point on the concentration scale where inhibition reaches its midpoint. The low end stands for inhibition by little substance, the high end for a need for much substance.
